The source made the active and inactive calls.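 Rule for the calls: active = compounds giving half or more protection of infected cells from virus-caused growth loss, again on retest; inactive = the rest.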
Tested on: CEM cells HIV-1 protection, formazan growth assay
Assay: NCI AIDS Antiviral Assay
Conditions: for IC50: measured here: growth of uninfected CEM cells
Procedure, shortened: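 Category rules: moderately active means at least 50% protection on retest, and confirmed active means 100% protection reproducibly. The underlying data came from a formazan growth assay in HIV-1-infected CEM cells.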

Nc1ncnc2c1ncn2C1OC2CSCC2(O)C1O (stereo unspecified)
EC50: > 200 µM | IC50: 138 µM

C[C@@H]1C[C@H]2[C@@H]3CCC4=CC(=O)C=C[C@]4(C)[C@@]3(F)[C@@H](O)C[C@]2(C)C1=O
outcome: inactive

Cn1c(=O)c2c(ncn2CC(=O)NC23CC4CC(CC(C4)C2)C3)n(C)c1=O
outcome: inactive

Cc1cccc([P+](Cc2ccccc2)(c2cccc(C)c2)c2cccc(C)c2)c1
EC50: > 200 µM | IC50: 0.589 µM

S=c1sc(-c2ccccc2)c[se]1
EC50: > 50.1 µM | IC50: 29.5 µM

[N-]=[N+]=NC1=C(N=[N+]=[N-])c2cccc3cccc(c23)C1=O
outcome: inactive

CCN(CC)CCNCc1cc(Cl)cc2c1OCOC2
EC50: > 200 µM | IC50: > 200 µM

CCCCCCN(CCCCCC)CC(=O)Nc1ccc(S(=O)(=O)c2ccc(NC(=O)CN(CCCCCC)CCCCCC)cc2)cc1
EC50: > 200 µM | IC50: 11.5 µM

Cc1nc2ccccc2c(-n2cccn2)c1CCn1cccn1
EC50: > 200 µM | IC50: 93.3 µM

N#C[C@H](C(=O)c1ccccc1F)c1nc2ccccc2[nH]1
EC50: 170 µM | IC50: > 200 µM

CN1CC=C(c2c(N)nc(N)[nH]c2=O)CC1
EC50: > 200 µM | IC50: > 200 µM

CC1=N/C(=C\c2ccc(N(C)C)cc2)C(=O)O1
EC50: > 81.3 µM | IC50: > 81.3 µM

O=C1OC2(O)c3ccccc3C(=O)N2N2CCCC12 (stereo unspecified)
EC50: > 692 µM | IC50: > 692 µM

COc1cc(O)c2cc1Oc1ccc(cc1)CC1=NCCc3cc(OC)c(cc31)Oc1c(OC)c(OC)c(OC)c3c1[C@H](C2)N(C)CC3
outcome: inactive

NC1c2c(Br)sc(N3CCCC3)c2C(=O)C1O (stereo unspecified)
EC50: > 200 µM | IC50: > 200 µM

C1CN1c1nc(N2CC2)nc(N2CC2)n1
EC50: > 91.2 µM | IC50: 1.05 µM

CC1CCOC(=O)/C=C/C=C/C(=O)OC2CC3OC4C5OC5(C)C(O)CC4(COC(=O)C1O)C2(C)C31CO1 (stereo unspecified)
EC50: > 2 µM | IC50: 0.0468 µM

CCOC1(NC(=O)N(C)C)C2CCCC21 (stereo unspecified)
EC50: > 200 µM | IC50: > 200 µM

CCOC(CNc1nn2c(C)nnc2s1)OCC
EC50: > 200 µM | IC50: > 200 µM

O=C(O)c1ccccc1P12(OC(=O)c3ccccc31)OC(=O)c1ccccc12
EC50: > 209 µM | IC50: 170 µM

OCC(CO)c1cnnc2ccccc12
EC50: > 525 µM | IC50: > 525 µM

COC1(OC)C2(Cl)C(Cl)=C(Cl)C1(Cl)C1c3ccc(C(C)=O)c4cccc(c34)C12 (stereo unspecified)
outcome: inactive

O=C(Nc1ccc(Cl)cc1C(=O)O)c1ccc([N+](=O)[O-])cc1
outcome: inactive

COc1cccc(/C=N\N=C\c2cccc(OC)c2O)c1O
EC50: > 200 µM | IC50: 66.1 µM

Brc1cccc(C=NC23CC4CC(CC(C4)C2)C3)c1
EC50: > 16.2 µM | IC50: > 16.2 µM

N#CC(C#N)=C1CCN2CCCc3cccc1c32
EC50: > 200 µM | IC50: 129 µM

[O-][n+]1onc(-c2ccccc2)c1-c1ccccc1
EC50: > 151 µM | IC50: > 151 µM

COc1cc(O)c(/C=N\O)c(OC)c1
EC50: > 912 µM | IC50: 83.2 µM

C[N+](C)([O-])C12CC3CC(CC(C3)C1)C2
EC50: > 200 µM | IC50: > 200 µM

CN(C)CCNc1ccc(CO)c2sc3ccc(O)cc3c(=O)c12
EC50: > 2 µM | IC50: 0.105 µM

COC(=O)c1nn(C(=N)c2ccc(Cl)cc2)c2c1CCC2
EC50: > 813 µM | IC50: > 813 µM

CN[C@H]1CCc2cc(OC)c(OC)c(OC)c2-c2ccc(OC)c(=O)cc21
outcome: inactive

CCOC(=O)C(NC(C)=O)[CH](c1ccccc1)[Sn]([Cl])([c]1ccccc1)[c]1ccccc1 (stereo unspecified)
EC50: > 200 µM | IC50: 91.2 µM

COc1cccc(CCNC(=O)Cc2ccccc2CCO)c1
EC50: > 200 µM | IC50: > 200 µM

Clc1c2ccccc2[se][n+]1-c1ccccc1
EC50: > 21.9 µM | IC50: 11.2 µM

C/C(CN1C(=O)c2ccccc2C1=O)=N\NS(=O)(=O)c1ccc(C)cc1
EC50: > 355 µM | IC50: > 355 µM

Cc1cc(=O)oc2ccccc12
EC50: > 813 µM | IC50: > 813 µM

CC(=O)CCC(=O)C(=[N+]=[N-])S(=O)(=O)c1ccccc1
EC50: > 891 µM | IC50: 151 µM

Cc1c(C(=O)CC(=O)C(=O)Nc2ccc(Cl)cc2)[n+](=O)c2ccccc2n1[O-]
EC50: > 12.6 µM | IC50: > 12.6 µM

CC1(O)C(=O)N(Cc2ccccc2)c2ccccc21 (stereo unspecified)
EC50: > 141 µM | IC50: > 141 µM

COC(=O)c1cc(CN(C)C)c(O)c(CN(C)C)c1
EC50: > 200 µM | IC50: > 200 µM

Cc1nc(N)c(N2CCN(C(=O)O)CC2)c(=O)[nH]1
EC50: > 200 µM | IC50: > 200 µM

NC1c2c(Cl)sc(Cl)c2C(=O)C1O (stereo unspecified)
EC50: > 200 µM | IC50: 35.5 µM

N/N=C1\C(=O)N(c2ccc(Cl)c(Cl)c2)C(=O)C1C(=O)Nc1ccc(Cl)c(Cl)c1 (stereo unspecified)
EC50: > 1.2 µM | IC50: > 1.2 µM

O=[N+]([O-])c1ccc(/C=C/C=C/C=C/C=C/c2ccc(S(=O)(=O)F)cc2Cl)c(Cl)c1
EC50: > 200 µM | IC50: 186 µM

CC(C)NCCCC(C)Nc1ccnc2ccc3nn(C)nc3c12 (stereo unspecified)
EC50: > 240 µM | IC50: 53.7 µM

O=C(NC(Nc1ccc(F)cc1)(C(F)(F)F)C(F)(F)F)C(C(F)(F)F)C(F)(F)F
outcome: inactive

COC(O)C12OC3CO[Si](C(C)C)(C(C)C)O[Si](C(C)C)(C(C)C)OC3C1Oc1nc(=O)ccn12 (stereo unspecified)
EC50: > 200 µM | IC50: 30.2 µM

c1ccc(CCC[P+](c2ccccc2)(c2ccccc2)c2ccccc2)cc1
EC50: > 200 µM | IC50: 0.692 µM

CC(=O)N(CC1CCCN(C)C1)C12CC3CC(CC(C3)C1)C2 (stereo unspecified)
EC50: > 117 µM | IC50: > 117 µM

COC1=NC2=NCCN2C(OC)=N1
EC50: > 200 µM | IC50: > 200 µM

CC(=O)OCC1OC(N2C(c3ccccc3)=CC(c3ccco3)C(C#N)=C2S)C(OC(C)=O)C(OC(C)=O)C1OC(C)=O (stereo unspecified)
EC50: 178 µM | IC50: > 200 µM

CSc1cc(-c2ccccn2)nc(-c2ccccn2)c1.CSc1cc(-c2ccccn2)nc(-c2ccccn2)c1.[Mn+2].[O-][Cl+3]([O-])([O-])[O-]
EC50: > 0.2 µM | IC50: 0.0631 µM

NC1=NC(c2ccccc2)CC(c2cc(Cl)ccc2O)=N1 (stereo unspecified)
EC50: > 200 µM | IC50: 12.6 µM

Cc1c(Cc2ccccc2)n(C(C)OCCO)c(=O)[nH]c1=O (stereo unspecified)
EC50: > 200 µM | IC50: > 200 µM

CC1=C(C(=O)Nc2ccccc2)C(c2cc(Cl)cc(Cl)c2)C(C(=O)Nc2ccccc2)=C(C)N1
EC50: > 14.5 µM | IC50: > 14.5 µM

Cc1ccc2ccccc2c1CC1S(=O)(=O)OCCOS1(=O)=O
EC50: > 200 µM | IC50: 115 µM

COc1cc2c(cc1OC)[C@H]1C(=O)c3cc4c(cc3[C@H]1N(C)C2=O)OCO4
EC50: > 37.2 µM | IC50: 0.479 µM

Nc1c(Cl)cc(/C=C2\C=Cc3ccccc32)cc1Cl
EC50: > 18.2 µM | IC50: > 18.2 µM

COC(=O)N1CC[C@@H]2CCC=C(c3cccc4c3OCO4)[C@@H]21
outcome: inactive

Cn1c(=O)c(C2c3ccccc3Oc3c2c(=O)n(C)c2ccccc32)c(O)c2ccccc21 (stereo unspecified)
EC50: > 16.6 µM | IC50: > 16.6 µM

COc1ccc(-c2cc(C(=O)Nc3ccc(C)c(C)c3)nc(NC#N)n2)cc1
EC50: > 339 µM | IC50: > 339 µM

CN(C)CC1CCCCCCCCCC(CN(C)C)C1=O (stereo unspecified)
EC50: > 5.89 µM | IC50: > 5.89 µM

CC(=O)NNc1nc(C)c(C(/C=C/c2ccc(Cl)cc2)=N/NC(=S)NN)s1
EC50: > 44.7 µM | IC50: > 44.7 µM

CCCCCC(=O)c1c(O)cc2c(c1O)C(=O)c1c(O)cc(O)cc1C2=O
EC50: > 200 µM | IC50: 56.2 µM
